The test deals with FOXC2-expressing HMLER cells. In words: Cell Titer Glo viability of FOXC2-HMLER cells (high throughput screen and 10-point response). In kind it is cell-based. The conditions noted are these: Homo sapiens, 72 hours. An outline of the steps: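 Viability after 72 h compound exposure was measured as Cell Titer Glo luminescence. FOXC2-HMLER and parental HMLER cells, 1,000 per well in MEGM medium, were dosed 1 h after plating; screening concentration was 2 μM.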

[1] abbreviates: scored relative to parent compound 2, read-out: Activity Score, inhibition of FOXC2-expressing HMLER cells by Formula II compounds.
Where [2] appears, read: scored relative to parent compound 3, read-out: Activity Score, inhibition of FOXC2-expressing HMLER cells by Formula III compounds.

The text below walks through data of patent publication US11759461B2, “Small molecule inhibitors of cancer stem cells and mesenchymal cancer types” (The Scripps Research Institute, priority 2017, dated 2023).

The structures appear in SMILES notation. Read-outs that look alike come from different tables or passages of the source.

Consider `Cc1cccc(C)c1NC(=O)Cn1c(=O)c(CNc2ccccc2)cc2cc3c(cc21)OCCO3` [Compound 2GU], for which the IC50 under setting [1] was greater than 20 µM.
As to `COc1cc(NC(=O)Cn2c(=O)c(CNc3ccccc3)cc3ccc(OC)cc32)cc(OC)c1` [Compound 2GV], the IC50 under setting [1] is greater than 20 µM.
Consider `CCOc1ccc(NC(=O)Cn2c(=O)c(CNc3ccccc3)cc3cc4c(cc32)OCCO4)cc1` [Compound 2GW], for which the IC50 under setting [1] is greater than 20 µM.
Still for that read-out and setting: to `COc1ccc2cc(CNc3ccc(C)cc3)c(=O)n(CC(=O)Nc3ccc(OC)c(Cl)c3)c2c1` [Compound 2GX] belongs greater than 20 µM; to `COc1ccc(NCc2cc3ccc(C)cc3n(CC(=O)Nc3ccc(C)cc3)c2=O)cc1OC` [Compound 2GY], greater than 20 µM.
Still for that read-out and setting: to `COc1ccc2cc(CNc3ccc(C)cc3)c(=O)n(CC(=O)Nc3ccccc3C)c2c1` [Compound 2GZ] belongs greater than 20 µM; to `COc1ccc2cc(CNc3ccc(C)cc3)c(=O)n(CC(=O)Nc3ccc(F)c(F)c3)c2c1` [Compound 2G], 1 to 20 µM; to `CCc1ccc(NCc2cc3ccc(OC)cc3n(CC(=O)Nc3ccccc3)c2=O)cc1` [Compound 2HA], greater than 20 µM.
Turning to `COc1ccc2cc(CNc3ccccc3)c(=O)n(CC(N)=O)c2c1` [Compound 2HB], the IC50 under setting [1] is greater than 20 µM.
The same measure, in the same setting: next, `CCc1ccc(NCc2cc3ccc(OC)cc3n(CC(=O)Nc3ccccc3Cl)c2=O)cc1` [Compound 2HC]: greater than 20 µM.
Turning to `COc1ccc2cc(CNc3ccc(C)cc3)c(=O)n(CC(=O)Nc3ccccc3OC)c2c1` [Compound 2HD], the IC50 under setting [1] was greater than 20 µM.
With `COc1ccc(NCc2cc3ccc(OC)cc3n(CC(=O)Nc3cc(C)ccc3C)c2=O)cc1` [Compound 2HE], the IC50 under setting [1] was greater than 20 µM.
For `COc1ccc2cc(CNc3ccccc3)c(=O)n(CC(=O)Nc3ccc(OC)c(OC)c3)c2c1` [Compound 2HF], under setting [1], the IC50 was greater than 20 µM.
Take `CCc1ccc(NCc2cc3ccc(OC)cc3n(CC(=O)Nc3cccc(C)c3)c2=O)cc1` [Compound 2HG]: the IC50 under setting [1] is greater than 20 µM.
As for `COc1ccc2cc(CNc3ccc(C)cc3)c(=O)n(CC(=O)NCCc3ccccc3)c2c1` [Compound 2HH], under setting [1], the IC50 was greater than 20 µM.
Regarding `COc1ccc(NCc2cc3cc(OC)c(OC)cc3n(CC(=O)Nc3cccc(C)c3)c2=O)cc1` [Compound 2HI], under setting [1], the IC50 was greater than 20 µM.
On to `COc1ccc2cc(CNc3ccc(C)cc3)c(=O)n(CC(=O)Nc3cccc(Cl)c3)c2c1` [Compound 2HJ], for which the IC50 under setting [1] was greater than 20 µM.
On to `CCc1ccc(NCc2cc3ccc(OC)cc3n(CC(=O)Nc3ccc(F)cc3)c2=O)cc1` [Compound 2HK], for which the IC50 under setting [1] was greater than 20 µM.
As for `COc1ccc2c(c1)cc(CNc1ccc(OC)c(OC)c1)c(=O)n2CC(=O)Nc1ccc(C)cc1` [Compound 2HL], the IC50 under setting [1] is greater than 20 µM.
For `COc1ccc(NC(=O)c2ccccc2NC(=O)CN2C(=O)c3ccccc3C2=O)cc1` [Compound 2HM], under setting [1], the IC50 was greater than 20 µM.
With `COc1ccc2cc(CNc3ccccc3)c(=O)n(CC(=O)Nc3cc(C)cc(C)c3)c2c1` [Compound 2HN], under setting [1], the IC50 is greater than 20 µM.
Still for that read-out and setting: next, `COc1ccc(NCc2cc3ccc(C)cc3n(CC(=O)Nc3ccc(C)c(C)c3)c2=O)cc1OC` [Compound 2HO]: greater than 20 µM; `COc1ccc(NCc2cc3cc4c(cc3n(CC(=O)Nc3c(C)cccc3C)c2=O)OCCO4)cc1` [Compound 2HP]: greater than 20 µM.
As to `CCc1ccc(NCc2cc3ccc(OC)cc3n(CC(=O)Nc3cc(C)cc(C)c3)c2=O)cc1` [Compound 2HQ], the IC50 under setting [1] is greater than 20 µM.
As to `CCc1ccc(NCc2cc3cc(OC)c(OC)cc3n(CC(=O)Nc3ccc(C)cc3)c2=O)cc1` [Compound 2HR], the IC50 under setting [1] was greater than 20 µM.
For the compound `COc1ccccc1NC(=O)Cn1c(=O)c(CNc2ccc(C)cc2)cc2cc(OC)c(OC)cc21` [Compound 2HS], under setting [1], the IC50 was greater than 20 µM.
For `COc1ccc2cc(CNc3ccccc3)c(=O)n(CC(=O)Nc3ccccc3C)c2c1` [Compound 2HT], under setting [1], the IC50 was greater than 20 µM.
With `COc1ccc(NC(=O)Cn2c(=O)c(CNc3ccc(OC)c(OC)c3)cc3ccc(C)cc32)cc1` [Compound 2HU], the IC50 under setting [1] is greater than 20 µM.
The same measure, in the same setting: next, `COc1ccc2cc(CNc3ccc(C)cc3)c(=O)n(CC(=O)Nc3ccc(C(C)=O)cc3)c2c1` [Compound 2HV]: greater than 20 µM; `COc1ccc2cc(CNc3ccc(OC)c(OC)c3)c(=O)n(CC(=O)Nc3ccc(C)cc3)c2c1` [Compound 2HW]: greater than 20 µM; `COc1cccc(NC(=O)Cn2c(=O)c(CNc3ccc(C)cc3)cc3ccc(OC)cc32)c1` [Compound 2HX]: greater than 20 µM.
For `COc1cccc(CNC(=O)Cn2c(=O)c(CNc3ccc(C)cc3)cc3ccc(OC)cc32)c1` [Compound 2HY], the IC50 under setting [1] was greater than 20 µM.
The same measure, in the same setting: next, `COc1ccc2cc(CNc3ccc(C)cc3)c(=O)n(CC(=O)NCc3ccc(Cl)cc3)c2c1` [Compound 2HZ]: greater than 20 µM; `COc1ccc2cc(CNc3ccc(C)cc3)c(=O)n(CC(=O)Nc3cccc(Cl)c3C)c2c1` [Compound 2H]: 1 to 20 µM; `COc1ccc2cc(CNc3ccccc3)c(=O)n(CC(=O)NCc3ccc(F)cc3)c2c1` [Compound 2IA]: greater than 20 µM.
On to `COc1ccc(NCc2cc3cc(OC)c(OC)cc3n(CC(=O)Nc3ccccc3)c2=O)cc1` [Compound 2IB], for which, under setting [1], the IC50 is greater than 20 µM.
For `COc1ccc(NCc2cc3ccc(OC)cc3n(CC(=O)Nc3cccc(OC)c3)c2=O)cc1` [Compound 2IC], the IC50 under setting [1] was greater than 20 µM.
For `COc1ccc(NCc2cc3cc4c(cc3n(CC(=O)Nc3cccc(C)c3)c2=O)OCCO4)cc1` [Compound 2ID], the IC50 under setting [1] was greater than 20 µM.
On to `COc1cc2cc(CNc3ccccc3)c(=O)n(CC(=O)Nc3cccc(Cl)c3)c2cc1OC` [Compound 2IE], for which the IC50 under setting [1] was greater than 20 µM.
As to `COc1cc(NC(=O)Cn2c(=O)c(CNc3ccccc3)cc3ccc(C)cc32)cc(OC)c1` [Compound 2IF], the IC50 under setting [1] was greater than 20 µM.
Consider `COc1ccc(NCc2cc3cc4c(cc3n(CC(=O)Nc3cc(C)cc(C)c3)c2=O)OCCO4)cc1` [Compound 2IG], for which the IC50 under setting [1] was greater than 20 µM.
Still for that read-out and setting: next, `CCc1ccc(NCc2cc3cc(OC)c(OC)cc3n(CC(=O)Nc3cc(C)cc(C)c3)c2=O)cc1` [Compound 2IH]: greater than 20 µM; `CCOc1ccc(NC(=O)Cn2c(=O)c(CNc3ccccc3)cc3ccc(OC)cc32)cc1` [Compound 2II]: greater than 20 µM; `COc1ccc(NCc2cc3cc(C)ccc3n(CC(=O)Nc3cc(C)cc(C)c3)c2=O)cc1` [Compound 2IJ]: greater than 20 µM.
For the compound `CCc1ccc(NC(=O)Cn2c(=O)c(CNc3ccc(OC)cc3)cc3cc4c(cc32)OCCO4)cc1` [Compound 2IK], under setting [1], the IC50 was greater than 20 µM.
On to `CCc1ccc(NCc2cc3ccc(OC)cc3n(CC(=O)Nc3ccc(OC)cc3)c2=O)cc1` [Compound 2IL], for which the IC50 under setting [1] is greater than 20 µM.
Consider `COc1ccc2cc(CNc3ccc(C)cc3)c(=O)n(CC(=O)Nc3c(C)cccc3C)c2c1` [Compound 2IM], for which, under setting [1], the IC50 was greater than 20 µM.
Take `CCc1ccc(NCc2cc3cc(OC)c(OC)cc3n(CC(=O)Nc3cc(C)ccc3C)c2=O)cc1` [Compound 2I]: under setting [1], the IC50 is 1 to 20 µM.
On to `CCc1ccc(NCc2cc3ccc(OC)cc3n(CC(=O)Nc3ccc(C)cc3C)c2=O)cc1` [Compound 2J], for which the IC50 under setting [1] lay within 1 to 20 µM.
Regarding `COc1ccc2cc(CNc3ccc(C)cc3)c(=O)n(CC(=O)Nc3c(C)cc(C)cc3C)c2c1` [Compound 2K], under setting [1], the IC50 lay within 1 to 20 µM.
The same measure, in the same setting: next, `COc1ccc(NCc2cc3ccc(C)cc3n(CC(=O)Nc3cc(C)ccc3C)c2=O)cc1OC` [Compound 2L]: 1 to 20 µM.
For `COc1ccc2cc(CNc3ccc(C)cc3)c(=O)n(CC(=O)Nc3ccc(C)cc3Cl)c2c1` [Compound 2M], under setting [1], the IC50 lay in the range of 1 to 20 µM.
For `CCc1ccc(NCc2cc3cc4c(cc3n(CC(=O)Nc3ccccc3CC)c2=O)OCCO4)cc1` [Compound 2N], the IC50 under setting [1] lay in the range of 1 to 20 µM.
Same read-out and setting: next, `COc1ccc2cc(CNc3ccc(C)cc3)c(=O)n(CC(=O)Nc3ccccc3F)c2c1` [Compound 2O]: 1 to 20 µM; `CCc1ccc(NCc2cc3cc4c(cc3n(CC(=O)Nc3ccccc3C)c2=O)OCCO4)cc1` [Compound 2P]: 1 to 20 µM.
Same read-out and setting: next, `COc1ccc2cc(CNc3ccc(C)cc3)c(=O)n(CC(=O)Nc3ccc(Cl)cc3)c2c1` [Compound 2Q]: 1 to 20 µM; `COc1ccc2cc(CNc3ccccc3)c(=O)n(CC(=O)Nc3cc(C)ccc3C)c2c1` [Compound 2R]: 1 to 20 µM.
Same read-out and setting: to `CCOc1ccc(NC(=O)Cn2c(=O)c(CNc3ccc(C)cc3)cc3cc4c(cc32)OCCO4)cc1` [Compound 2S] belongs 1 to 20 µM; to `CCc1ccc(NCc2cc3ccc(OC)cc3n(CC(=O)Nc3ccccc3F)c2=O)cc1` [Compound 2T], 1 to 20 µM.
Consider `COc1ccc2cc(CNc3ccc(C)cc3)c(=O)n(CC(=O)Nc3cc(C)ccc3C)c2c1` [Compound 2U], for which, under setting [1], the IC50 is 1 to 20 µM.
Take `COc1cc2cc(CNc3ccccc3)c(=O)n(CC(=O)Nc3ccc(C(C)C)cc3)c2cc1OC` [Compound 2V]: the IC50 under setting [1] was 1 to 20 µM.
For the compound `COc1ccc(NCc2cc3cc4c(cc3n(CC(=O)Nc3cc(C)ccc3C)c2=O)OCCO4)cc1` [Compound 2W], the IC50 under setting [1] fell in the range of 1 to 20 µM.
For `COc1cc2cc(CNc3ccccc3)c(=O)n(CC(=O)Nc3cc(C)ccc3C)c2cc1OC` [Compound 2X], the IC50 under setting [1] was in the range of 1 to 20 µM.
Still for that read-out and setting: next, `COc1cc2cc(CNc3ccccc3)c(=O)n(CC(=O)Nc3cccc(Cl)c3C)c2cc1OC` [Compound 2Y]: 1 to 20 µM; `CCOc1ccc(NC(=O)Cn2c(=O)c(CNc3ccc(CC)cc3)cc3ccc(OC)cc32)cc1` [Compound 2Z]: 1 to 20 µM; `COC(=O)c1ccccc1NC(=O)Cn1c(=O)c(CNc2ccccc2)cc2ccc(OC)cc21` [Compound 2]: less than 1 µM.
With `Cc1ccc(C(=O)N2CCN(c3ccc(F)cc3)CC2)cc1-n1nnc2cccnc21` [Compound 3AA], the IC50 under setting [2] fell in the range of 1 to 20 µM.
On the same count and under the same terms, to `Cc1ccc(CN2CCC(CNC(=O)c3ccc(C)c(-n4nnc5cccnc54)c3)CC2)cc1` [Compound 3AB] belongs 1 to 20 µM.
